# In US12472226B2, “Cell-permeable peptide” (priority 2019, dated 2025):
# Non-standard residues stand in square brackets, D forms with d. No end group written: not given here. *: point of attachment. FITC = O=C1OC2(c3ccc(O)cc3Oc3cc(O)ccc32)c2ccc(NC(=S)*)cc21; Ahx = NCCCCCC(=O)O
# Assays:
# Test in all cases: Test of inducing cell-death in vitro (Calcein-AM/PI dead cell rate)
# Assay type in all cases: cell-based, human
# HT-1080 cells = settings: for increase in the dead cell rate: day 21
# Description: (§1) Human fibrosarcoma-derived HT-1080 cells (HT-1080 cells, JCRB cell bank) were used as cancer cells in the test for monitoring changes in mitochondrial membrane potential. HT-1080 cells, human osteosarcoma cell line Hos cells (Hos cells, JCRB cell bank), human histiocytic lymphoma/macrophage U937 cells (U937 cells, JCRB cell bank), human myeloid leukemia HL-60 cells (HL-60 cells, JCRB cell bank), acute monocytic leukemia THP-1 cells (THP-1 cells, JCRB cell bank), human alveolar basal epithelial adenocarcinoma cell A549 cells (A549 cells, Cell Resource Center for Biomedical Research, Institute of Development, Aging and Cancer, Tohoku University), human pancreatic carcinoma cells (MIA Paca 2 cells, Cell Resource Center for Biomedical Research, Institute of Development, Aging and Cancer, Tohoku University) and well differentiated human liver carcinoma-derived cell line HuH7 cells (HuH7 cells, Cell Resource Center for Biomedical Research, Institute of Development, Aging and Cancer, Tohoku University) were used as cancer cells in an in vitro cell-death induction test of cancer cells and a nuclear transport test of Example 2. Normal human gingival fibroblast cells Gin-1 (Gin-1 cells, DS Pharma Biomedical) were used as a control. The above-described cells were each inoculated into a 96-well culture plate (Falcon) at 5,000 cells/[…] and subjected to the following tests.
# (§2) The peptide of SEQ ID NO: 1 labeled with FITC (Example 2) was used for the test of inducing cell-death in vitro in cancer cells. It was prepared the test example to which 100 μL of Example 2 and further 10% FBS were added and cultured for 9 days under conditions of 200 μL of serum-supplemented medium (Alpha modification of Eagle's MEM (α-MEM) (Thermo Fisher Scientific)+10% FBS). Furthermore, it was also produced the test example that was cultured for 21 days with the whole amount of Example 2-supplemented medium replaced every 7 days. As a control, the cells were cultured in a serum-supplemented medium (α-MEM+10% FBS) without addition and were used. A supernatant was removed after the completion of the culture. The cells were washed once with PBS and stained in PBS to which a fluorescent dye for living cell staining Calcein-AM (DOJINDO LABORATORIES) (final concentration: 0.1 μg/mL) and a fluorescent dye for dead cell staining Propidium Iodide (PI) (DOJINDO LABORATORIES) (final concentration: 0.3 μg/mL) were added, at 37° C. in a 5% CO2 cell incubator for 30 minutes. The living cells and dead cells were separately stained with Calcein-AM and PI, respectively and imaged with the confocal laser scanning microscope LSM800. Next, the dead cell rate relative to the number of total cells was analyzed using ImageJ.
# The results are represented by the average value of the dead cell rate (the number red cells stained with IP/the number of total cells×100(%))±standard deviation (SD). In FIG. 2A, the vertical axis represents the rate of cell death when each cell was cultured with Example 2 (50 μg/mL) for 9 days and the horizontal axis represents various types of cells. The increase in the dead cell rate of the Gin-1 cells was not observed.
# The concentrations of Examples 2 and 4 to 6 were adjusted to 12.5, 25, 50 and 100 μg/mL, respectively and then administrated to the HT-1080 cells for 9 days tested by the same method as in Test Example 2A. The cell staining and subsequent analyses of the dead cell rate relative to the number of total cells were performed in the same manner as Test Example 2A.
# MIA Paca2 cells = settings: for dead cell rate: 50 μg/mL
# Description: as §1, §2
# (§3) The amount of administration of Example 2 was adjusted to 50 μg/mL and was used for 9-, 16- or 23-day administration test in the A549, MIA Paca2 or HuH7 cells by the same method as in Test Example 2A above. The cell staining and subsequent analyses of the dead cell rate relative to the number of total cells were performed in the same manner as Test Example 2A above.
# A549 cells = settings: for dead cell rate: 50 μg/mL
# Description: as §1, §2, §3
# HuH7 cells = system: HuH7 cells
# Description: as §1, §2, §3
substance,measurement,setting,value
"Example 2: peptide of SEQ ID NO: 1 labeled with FITC, bound via an Ahx linker at the N-terminus ({FITC}-[Ahx]KDNRGNLLQCVCTGNGRGEWKC; cysteine pairing not given here)",increase in the dead cell rate,HT-1080 cells; 6.25 μg/mL,≥ 75%
same,increase in the dead cell rate,HT-1080 cells; 12.5 μg/mL,≥ 75%
same,increase in the dead cell rate,HT-1080 cells; 25 μg/mL,≥ 95%
same,increase in the dead cell rate vs control,"HT-1080 cells; 50 μg/mL, 9 days",significant difference at the level of 1%
same,increase in the dead cell rate,HT-1080 cells; 50 μg/mL,≥ 95%
same,increase in the dead cell rate,HT-1080 cells; 100 μg/mL,≥ 95%
same,increase in the dead cell rate vs control,"MIA Paca2 cells; 50 μg/mL, 9, 16 or 23 days",significant difference was recognized at the level of 1%
same,dead cell rate,MIA Paca2 cells; day 9,about 10%
same,dead cell rate,MIA Paca2 cells; day 16,~50%
same,dead cell rate,MIA Paca2 cells; day 23,about 80%
same,increase in the dead cell rate vs control,"A549 cells; 50 μg/mL, 9, 16 or 23 days",significant difference was recognized at the level of 1%
same,dead cell rate,A549 cells; day 9,~50%
same,dead cell rate,A549 cells; day 16,~60%
same,dead cell rate,A549 cells; day 21,≥ 80%
same,effect of administration (dead cell rate) on day 9 compared with later days,HuH7 cells; 50 μg/mL,substantially same as that of days 16 and 23
same,increase in the dead cell rate vs control,"HuH7 cells; 50 μg/mL, 9, 16 or 23 days",significant difference was recognized at the level of 1%
